From ChEMBL document CHEMBL3044663, “Synthesis and antimicrobial activities of novel bisacridine-1,8-dione derivatives” (2011)
Calls of active or inactive are those of the source. The rule behind the calls is not given here.

Columns and labels:
Assay type in all cases: functional
Escherichia coli = assay: Antibacterial activity against Escherichia coli ATCC 35218 after 24 hr by disk diffusion method; as to DIZ: test concentration or dose not given here
Bacillus cereus = assay: Antibacterial activity against Bacillus cereus RSKK 863 after 24 hr by disk diffusion method; also: test concentration or dose not given here
Candida albicans = assay: Antifungal activity against Candida albicans 16231 after 24 hr by disk diffusion method; as to DIZ: test concentration or dose not given here
Saccharomyces cerevisiae = assay: Antifungal activity against Saccharomyces cerevisiae TP (3-2) after 24 hr by disk diffusion method; also: test concentration or dose not given here
Salmonella = assay: Antibacterial activity against Salmonella 21.3 after 24 hr by disk diffusion method; as to DIZ: test concentration or dose not given here
Shigella sonnei = assay: Antibacterial activity against Shigella sonnei RSKK 877 after 24 hr by disk diffusion method; as to DIZ: test concentration or dose not given here; as to diameter of the inhibition zone (DIZ): test concentration or dose not given here
Bacillus subtilis = assay: Antibacterial activity against Bacillus subtilis RSKK 240 after 24 hr by disk diffusion method; also: test concentration or dose not given here
Staphylococcus aureus = assay: Antibacterial activity against Staphylococcus aureus ATCC 25923 after 24 hr by disk diffusion method; also: test concentration or dose not given here
Pseudomonas aeruginosa = assay: Antibacterial activity against Pseudomonas aeruginosa ATCC 27853 after 24 hr by disk diffusion method; as to DIZ: test concentration or dose not given here
[1] = test system: Staphylococcus epidermidis; assay: Antibacterial activity against Staphylococcus epidermidis Mu 30 after 24 hr by disk diffusion method; also: test concentration or dose not given here

Molecule	diameter of the inhibition zone (DIZ) (Escherichia coli)	diameter of the inhibition zone (DIZ) (Bacillus cereus)	diameter of the inhibition zone (DIZ) (Candida albicans)	diameter of the inhibition zone (DIZ) (Saccharomyces cerevisiae)	diameter of the inhibition zone (DIZ) (Salmonella)	diameter of the inhibition zone (DIZ) (Shigella sonnei)	diameter of the inhibition zone (DIZ) (Bacillus subtilis)	diameter of the inhibition zone (DIZ) (Staphylococcus aureus)	diameter of the inhibition zone (DIZ) (Pseudomonas aeruginosa)	diameter of the inhibition zone (DIZ) [1]	inhibition zone (IZ) (Escherichia coli) [mm]	inhibition zone (IZ) (Salmonella) [mm]	inhibition zone (IZ) (Shigella sonnei) [mm]	inhibition zone (IZ) (Pseudomonas aeruginosa) [mm]
CC1(C)CC(=O)C2=C(C1)N(c1cccc(C#N)c1)C1=C(C(=O)CC(C)(C)C1)C2c1cccc(C2C3=C(CC(C)(C)CC3=O)N(c3cccc(C#N)c3)C3=C2C(=O)CC(C)(C)C3)c1	13 mm	inactive	16 mm	14 mm	10 mm	9 mm	inactive	10 mm	8 mm	8 mm	–	–	–	–
CC1(C)CC(=O)C2=C(C1)N(c1ccc(C(=O)O)cc1)C1=C(C(=O)CC(C)(C)C1)C2c1cccc(C2C3=C(CC(C)(C)CC3=O)N(c3ccc(C(=O)O)cc3)C3=C2C(=O)CC(C)(C)C3)c1	10 mm	9 mm	12 mm	13 mm	9 mm	11 mm	11 mm	inactive	inactive	11 mm	–	–	–	–
Cc1cccc(N2C3=C(C(=O)CCC3)C(c3cccc(C4C5=C(CCCC5=O)N(c5cccc(C)n5)C5=C4C(=O)CCC5)c3)C3=C2CCCC3=O)n1	12 mm	inactive	14 mm	17 mm	9 mm	9 mm	inactive	18 mm	9 mm	8 mm	–	–	–	–
CC1(C)S[C@@H]2[C@H](NC(=O)[C@H](N)c3ccccc3)C(=O)N2[C@H]1C(=O)O [AMPICILLIN]	27 mm	20 mm	–	–	23 mm	22 mm	24 mm	24 mm	–	–	–	–	–	–
COc1cccc(N2C3=C(C(=O)CC(C)(C)C3)C(c3cccc(C4C5=C(CC(C)(C)CC5=O)N(c5cccc(OC)c5)C5=C4C(=O)CC(C)(C)C5)c3)C3=C2CC(C)(C)CC3=O)c1	10 mm	13 mm	inactive	inactive	inactive	12 mm	inactive	inactive	7 mm	inactive	–	–	–	–
COc1ccccc1N1C2=C(C(=O)CCC2)C(c2cccc(C3C4=C(CCCC4=O)N(c4ccccc4OC)C4=C3C(=O)CCC4)c2)C2=C1CCCC2=O	inactive	inactive	inactive	inactive	inactive	inactive	inactive	inactive	inactive	inactive	–	–	–	–
CC1(C)CC(=O)C2=C(C1)N(c1ccc(Cl)cc1)C1=C(C(=O)CC(C)(C)C1)C2c1ccc(C2C3=C(CC(C)(C)CC3=O)N(c3ccc(Cl)cc3)C3=C2C(=O)CC(C)(C)C3)cc1	12 mm	inactive	10 mm	14 mm	12 mm	10 mm	inactive	9 mm	9 mm	7 mm	–	–	–	–
O=C1CCCC2=C1C(c1cccc(C3C4=C(CCCC4=O)N(c4cccc(C(=O)O)c4)C4=C3C(=O)CCC4)c1)C1=C(CCCC1=O)N2c1cccc(C(=O)O)c1	12 mm	8 mm	14 mm	11 mm	11 mm	inactive	9 mm	inactive	9 mm	inactive	–	–	–	–
CC1(C)CC(=O)C2=C(C1)N(c1ccccc1C#N)C1=C(C(=O)CC(C)(C)C1)C2c1cccc(C2C3=C(CC(C)(C)CC3=O)N(c3ccccc3C#N)C3=C2C(=O)CC(C)(C)C3)c1	12 mm	inactive	14 mm	14 mm	9 mm	10 mm	inactive	12 mm	9 mm	9 mm	–	–	–	–
CC1(C)CC(=O)C2=C(C1)N(c1cccc(C(=O)O)c1)C1=C(C(=O)CC(C)(C)C1)C2c1cccc(C2C3=C(CC(C)(C)CC3=O)N(c3cccc(C(=O)O)c3)C3=C2C(=O)CC(C)(C)C3)c1	9 mm	8 mm	16 mm	16 mm	11 mm	10 mm	9 mm	10 mm	9 mm	inactive	–	–	–	–
COc1cccc(N2C3=C(C(=O)CCC3)C(c3cccc(C4C5=C(CCCC5=O)N(c5cccc(OC)c5)C5=C4C(=O)CCC5)c3)C3=C2CCCC3=O)c1	14 mm	inactive	12 mm	11 mm	12 mm	10 mm	11 mm	16 mm	9 mm	11 mm	–	–	–	–
CC1(C)CC(=O)C2=C(C1)N(c1ccc(Br)cc1)C1=C(C(=O)CC(C)(C)C1)C2c1ccc(C2C3=C(CC(C)(C)CC3=O)N(c3ccc(Br)cc3)C3=C2C(=O)CC(C)(C)C3)cc1	10 mm	inactive	11 mm	16 mm	10 mm	12 mm	inactive	12 mm	10 mm	10 mm	–	–	–	–
O=C1CCCC2=C1C(c1cccc(C3C4=C(CCCC4=O)N(c4ccc(C(=O)O)cc4)C4=C3C(=O)CCC4)c1)C1=C(CCCC1=O)N2c1ccc(C(=O)O)cc1	9 mm	inactive	10 mm	inactive	8 mm	9 mm	8 mm	11 mm	10 mm	12 mm	–	–	–	–
CC(=O)N1CCN(c2ccc(OCC3COC(Cn4ccnc4)(c4ccc(Cl)cc4Cl)O3)cc2)CC1 (configuration not stated) [KETOCONAZOLE]	–	–	21 mm	24 mm	–	–	–	–	–	–	–	–	–	–
GENTAMICIN	–	–	–	–	–	–	–	–	–	–	15	10	11	20
